These are literature values, as cited in patent EP2505189B1, “Stabilizing alkylglycoside compositions and method thereof” (Aegis Therapeutics, LLC, priority 2006, dated 2007).

The conditions of data set [1]: in water.
The conditions of data set [2]: Phase I, 1987-1990.
The test system of data set [3] is HIV-related peripheral neuropathy. The settings on record: in vivo.
The test system of data set [4] is isolated nasal cilia. The settings on record: in vitro, cilia from 15 human donors.
Data set [5] concerns nasal mucosa.

For `CCCCCCCCCCCCCCO[C@@H]1O[C@H](CO)[C@@H](O[C@@H]2O[C@@H](CO)[C@H](O)[C@@H](O)[C@@H]2O)[C@H](O)[C@H]1O` (stereo in doubt) [Tetradecyl maltoside], the CMC in data set [1] is listed as 0.01 mM. For the compound `CCCCCCCCCCCCCO[C@@H]1O[C@H](CO)[C@@H](OC2OC(CO)C(O)C(O)C2O)[C@H](O)[C@H]1O` (stereo in doubt) [Tridecyl maltoside], the CMC in data set [1] is recorded as 0.03 mM.

`C[C@@H](N)C(=O)N[C@@H](CO)C(=O)N[C@H](C(=O)N[C@H](C(=O)N[C@H](C(=O)N[C@@H](CC(N)=O)C(=O)N[C@@H](Cc1ccc(O)cc1)C(=O)N[C@H](C(N)=O)[C@@H](C)O)[C@@H](C)O)[C@@H](C)O)[C@@H](C)O` [DAPTA, D-ala^1-Peptide T-amide]: the toxicity result in data set [2] is “complete lack of toxicity”. Moreover, the adverse drug effects entry in data set [3] is given as “No adverse drug effects were noted”.

As to `CCCCCCCCCCO[C@@H]1O[C@H](CO)[C@@H](O[C@H]2O[C@H](CO)[C@@H](O)[C@H](O)[C@H]2O)[C@H](O)[C@H]1O` [Decyl maltoside], the CMC in data set [1] is given as 1.8 mM. Take `CCCCCCCCCCCCO[C@@H]1O[C@H](CO)[C@@H](O[C@H]2O[C@H](CO)[C@@H](O)[C@H](O)[C@H]2O)[C@H](O)[C@H]1O` [Dodecyl β -D-maltoside]: in data set [1], the CMC is reported as 0.17 mM. `CCCCCCCCO[C@@H]1O[C@H](CO)[C@@H](O[C@H]2O[C@H](CO)[C@@H](O)[C@H](O)[C@H]2O)[C@H](O)[C@H]1O` [Octyl maltoside]: the CMC in data set [1] is 19.5 mM. In the case of Sucrose dodecanoate, the CMC in data set [1] is 0.3 mM. Turning to benzalkonium chloride [BAC], the “effect on isolated nasal cilia” value in data set [4] is reported as “ciliotoxic”. For the same compound, the nasal irritation entry in data set [5] (0.02% (Lange 2004)) is given as “no discernible negative effects whatsoever”. Moreover, the “effect on the nasal mucosal function” value in data set [5] (0.02% twice a day, two weeks of continual regular use (McMahon 1997)) is listed as “no detectable effect on the nasal mucosal function”. Also, the saccharine transport time result in data set [5] (in vivo tests (Riechelmann 2004)) is “did not alter saccharine transport time”. Besides, the “damage to the nasal mucosa” value in data set [5] (prolonged use of topical formulations, 14 in vivo studies (Marple 2004)) is reported as “no significant damage to the nasal mucosa”.
